One data set has as its target T1, Cytochrome P450 1A2 (Homo sapiens, UniProt P05177). Also: in other assays of this panel Not Active means under 50% inhibition at 10 µM.
T1 sequence (P05177 whole entry): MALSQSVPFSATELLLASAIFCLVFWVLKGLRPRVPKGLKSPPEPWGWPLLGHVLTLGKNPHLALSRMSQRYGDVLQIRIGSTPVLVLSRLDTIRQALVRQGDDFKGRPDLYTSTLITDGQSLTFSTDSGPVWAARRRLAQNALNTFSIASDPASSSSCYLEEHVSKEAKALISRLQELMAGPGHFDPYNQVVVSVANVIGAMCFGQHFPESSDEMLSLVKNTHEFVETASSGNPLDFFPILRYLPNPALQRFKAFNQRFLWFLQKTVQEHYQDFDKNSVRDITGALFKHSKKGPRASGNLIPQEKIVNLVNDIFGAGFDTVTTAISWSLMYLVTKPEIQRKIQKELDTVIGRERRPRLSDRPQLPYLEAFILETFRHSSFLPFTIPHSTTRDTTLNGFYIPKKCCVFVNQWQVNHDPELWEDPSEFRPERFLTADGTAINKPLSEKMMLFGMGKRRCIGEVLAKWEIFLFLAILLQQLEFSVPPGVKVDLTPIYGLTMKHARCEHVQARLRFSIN
As to conditions: bti-tn-5b1-4.

Data set [1] can be described thus: DRUGMATRIX: Calcium Channel Type L, Dihydropyridine radioligand binding (ligand: [3H] Nitrendipine). Type of data set: cell membranes, Rattus norvegicus, Wistar, Cerebral cortex, Membrane. The settings on record: Not Active = under 50% inhibition at 10 µM.
The target of the next data set is T2, Adenosine receptor A1 (Homo sapiens, UniProt P30542).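 Also: radioligand binding assay at the adenosine A1 receptor, with DPCPX serving as the labelled ligand; in other assays of this panel Not Active means under 50% inhibition at 10 µM.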
T2 sequence (P30542 whole entry): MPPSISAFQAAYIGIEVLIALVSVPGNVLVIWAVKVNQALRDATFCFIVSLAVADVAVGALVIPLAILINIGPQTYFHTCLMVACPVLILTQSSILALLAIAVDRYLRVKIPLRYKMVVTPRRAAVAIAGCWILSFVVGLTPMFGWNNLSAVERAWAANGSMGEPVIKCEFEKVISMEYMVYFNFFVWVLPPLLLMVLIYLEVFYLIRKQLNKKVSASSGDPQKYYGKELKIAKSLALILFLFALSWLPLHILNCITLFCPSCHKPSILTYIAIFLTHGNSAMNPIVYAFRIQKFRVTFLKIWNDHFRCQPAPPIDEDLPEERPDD
It counts as cell membranes, Membrane. The settings on record: cho.

Data set [2] has as its target Sigma non-opioid intracellular receptor 1 (Homo sapiens, UniProt Q99720). Description: DRUGMATRIX: Sigma1 radioligand binding (ligand: [3H] Haloperidol). Type of data set: cell membranes, Jurkat, Membrane. As to conditions: Not Active = under 50% inhibition at 10 µM.
Data set [3] concerns the target Kappa-type opioid receptor (Homo sapiens, UniProt P41145). The data set is described as follows: DRUGMATRIX: Opiate kappa (OP2, KOP) radioligand binding (ligand: [3H] Diprenorphine). Type of data set: cell membranes, HEK293, Membrane. The settings on record: Not Active = under 50% inhibition at 10 µM.
The target in a further data set is Cytochrome P450 2D6 (Homo sapiens, UniProt P10635). The settings on record: bti-tn-5b1-4. Also: in other assays of this panel Not Active means under 50% inhibition at 10 µM.
Sequence of Cytochrome P450 2D6 (P10635 whole entry): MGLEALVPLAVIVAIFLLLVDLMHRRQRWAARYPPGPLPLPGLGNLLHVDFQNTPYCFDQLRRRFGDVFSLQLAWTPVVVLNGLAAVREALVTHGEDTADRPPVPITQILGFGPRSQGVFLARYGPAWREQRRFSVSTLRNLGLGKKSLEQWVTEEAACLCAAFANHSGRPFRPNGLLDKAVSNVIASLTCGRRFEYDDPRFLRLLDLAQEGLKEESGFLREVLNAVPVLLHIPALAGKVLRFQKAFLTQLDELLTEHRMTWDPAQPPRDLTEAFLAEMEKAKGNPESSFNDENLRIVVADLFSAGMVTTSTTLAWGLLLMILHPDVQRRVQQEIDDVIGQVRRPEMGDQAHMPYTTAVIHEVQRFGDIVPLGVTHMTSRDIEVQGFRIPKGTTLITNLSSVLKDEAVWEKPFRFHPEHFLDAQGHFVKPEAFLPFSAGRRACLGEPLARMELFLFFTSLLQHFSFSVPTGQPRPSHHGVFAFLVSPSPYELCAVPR
The nature of data set [4]: DRUGMATRIX: Glutamate, Kainate radioligand binding (ligand: [3H] Kainic acid). Type of data set: cell membranes, Rattus norvegicus, Wistar, Brain, Membrane. As to conditions: Not Active = under 50% inhibition at 10 µM.

As usually defined, the IC50 is the concentration at which inhibition is half-maximal. One may read the Ki as a measure of affinity in units of concentration, obtained from inhibition or displacement.

Sequence of Sigma non-opioid intracellular receptor 1 (Q99720 whole entry): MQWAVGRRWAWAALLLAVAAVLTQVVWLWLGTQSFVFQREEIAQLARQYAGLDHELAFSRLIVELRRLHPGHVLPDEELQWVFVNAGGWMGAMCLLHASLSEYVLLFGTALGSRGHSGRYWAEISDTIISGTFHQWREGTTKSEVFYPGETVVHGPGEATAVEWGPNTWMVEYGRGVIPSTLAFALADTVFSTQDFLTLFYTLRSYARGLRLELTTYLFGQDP
Sequence of Kappa-type opioid receptor (P41145 whole entry): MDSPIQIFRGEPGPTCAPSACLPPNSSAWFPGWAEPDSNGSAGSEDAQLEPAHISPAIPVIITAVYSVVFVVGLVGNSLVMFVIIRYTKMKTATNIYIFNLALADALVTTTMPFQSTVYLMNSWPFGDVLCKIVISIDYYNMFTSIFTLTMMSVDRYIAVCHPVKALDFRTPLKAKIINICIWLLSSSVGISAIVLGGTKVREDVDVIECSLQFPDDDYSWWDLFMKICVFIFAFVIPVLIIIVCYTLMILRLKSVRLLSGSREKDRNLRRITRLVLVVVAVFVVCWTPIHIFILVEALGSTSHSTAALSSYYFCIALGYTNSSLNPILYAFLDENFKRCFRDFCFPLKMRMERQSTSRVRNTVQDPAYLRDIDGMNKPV

`COc1ccccc1C(=O)N1CCC(Cc2ccccc2)CC1`: the IC50 result (on Cytochrome P450 1A2; in data set [1]; against Adenosine receptor A1; in data set [2] (jurkat); in data set [3] (hek293); against Cytochrome P450 2D6) was “Not Active” each time. Besides, the half-maximal inhibitory concentration (IC50) result in data set [4] is “Not Active”. The Ki entry (on Cytochrome P450 1A2; in data set [1]; on Cytochrome P450 2D6; in data set [4]) was “Not Active” throughout.
For the compound `Cc1ccccc1C(=O)N1CCC(Cc2ccccc2)CC1`, the half-inhibitory concentration (IC50) entry (at Cytochrome P450 1A2; in data set [1]; on Adenosine receptor A1; in data set [2] (jurkat); in data set [3] (hek293); at Cytochrome P450 2D6) was “Not Active” in each case. Besides, in data set [4], the 50% inhibitory concentration (IC50) entry is recorded as “Not Active”. The Ki result (at Cytochrome P450 1A2; in data set [1]; on Cytochrome P450 2D6; in data set [4]) was “Not Active” each time.
Consider `O=C1CC[C@H](N2C(=O)c3ccccc3C2=O)C(=O)N1`, for which the IC50 entry (on Cytochrome P450 1A2; in data set [1]; against Adenosine receptor A1; in data set [2] (jurkat); in data set [3] (hek293); on Cytochrome P450 2D6) was “Not Active” in each case. Also, in data set [4], the IC50 entry was “Not Active”. The Ki entry (at Cytochrome P450 1A2; in data set [1]; at Cytochrome P450 2D6; in data set [4]) was “Not Active” throughout.
Take `CCCCN1CCCCC1C(=O)Nc1c(C)cccc1C.Cl` (centres undefined) [BUPIVACAINE HYDROCHLORIDE]: the half-inhibitory concentration (IC50) result (against Cytochrome P450 1A2; in data set [1]; on Adenosine receptor A1; in data set [2] (jurkat); in data set [3] (hek293); in data set [4]) was “Not Active” each time. Besides, the inhibition constant Ki result (on Cytochrome P450 1A2; in data set [1]; in data set [4]) was “Not Active” in each case.
With `COc1ccc2c(c1)[C@]13CCCC[C@@H]1[C@H](C2)N(C)CC3` [DEXTROMETHORPHAN], the IC50 entry (in data set [1]; on Adenosine receptor A1; in data set [2] (jurkat); in data set [3] (hek293); at Cytochrome P450 2D6; in data set [4]) was “Not Active” throughout. The Ki entry (in data set [1]; at Cytochrome P450 2D6; in data set [4]) was “Not Active” in each case.
Turning to `CCN1CC(CCN2CCOCC2)C(c2ccccc2)(c2ccccc2)C1=O` (centres undefined) [DOXAPRAM], the IC50 entry (against Cytochrome P450 1A2; in data set [1]; against Adenosine receptor A1; in data set [2] (jurkat); in data set [3] (hek293); in data set [4]) was “Not Active” throughout. The Ki result (at Cytochrome P450 1A2; in data set [1]; in data set [4]) was “Not Active” in each case.
Turning to `CN(C)c1ccc(C(=C2C=CC(=[N+](C)C)C=C2)c2ccc(N(C)C)cc2)cc1.[Cl-]` [GENTIAN VIOLET], the IC50 entry against Cytochrome P450 1A2 was “Not Active”; in data set [1] (read-out: IC50) it was 2130 nM; against Adenosine receptor A1, “Not Active”; in data set [2] (jurkat) it was “Not Active”; in data set [3] (read-out: IC50), 1540 nM; in data set [4] it was “Not Active”. For the same compound, the inhibitory constant (Ki) entry was “Not Active” on Cytochrome P450 1A2, 1370 nM in data set [1] (read-out: Ki), 616 nM in data set [3] (read-out: Ki) and “Not Active” in data set [4].
For the compound `CC(=O)Nc1cccc(O)c1` [METACETAMOL], the 50% inhibitory concentration (IC50) result (in data set [1]; on Adenosine receptor A1; in data set [2] (jurkat); in data set [3] (hek293); against Cytochrome P450 2D6; in data set [4]) was “Not Active” in each case. Besides, the Ki result (in data set [1]; at Cytochrome P450 2D6; in data set [4]) was “Not Active” in each case.
Take `OC(CCN1CCCCC1)(c1ccccc1)C1CCCCC1` (centres undefined) [TRIHEXYPHENIDYL]: the 50% inhibitory concentration (IC50) result on Cytochrome P450 1A2 is “Not Active”; in data set [1], “Not Active”; at Adenosine receptor A1, “Not Active”; in data set [2] (read-out: IC50) it was 108 nM; in data set [3] (hek293), “Not Active”; in data set [4] it was “Not Active”. The Ki result was “Not Active” on Cytochrome P450 1A2, “Not Active” in data set [1], 45 nM in data set [2] (read-out: Ki) and “Not Active” in data set [4].

Values taken from ChEMBL document CHEMBL1909046, “DrugMatrix in vitro pharmacology data”.
